Results published in patent publication US10466259B2, “Synthetic antigen compositions for detecting anti-phosphatidylethanolamine antibodies” (Northwestern Univeristy, priority 2015, dated 2019).
Entries after “also recorded” stand apart in the source; their conditions may differ.

Columns and labels:
Assay type in all cases: binding, human
cofactor-independent aPE = experiment: aPE ELISA, cofactor-independent patient serum (Example 1); conditions: representative patient serum, antigen 1 to 400 μg/ml, FIG. 1
Experimental: For aPE ELISA assays (ref. 14; herein incorporated by reference in its entirety), microtiter plates (PolySorp, Thermo Fisher, Pittsburgh, USA) were coated with 50 μl of a solution containing various concentrations of egg yolk PE or equal molar amounts of DOPE in ethanol:chloroform (4:1) and dried by evaporation at room temperature (RT) in an extractor shielded from light. Each well was blocked for two hours at RT with 10% BSA in PBS followed by 50 μl of patient serum diluted 1/100 in PBS for one hour at RT. aPEs were assessed by using alkaline phosphatase conjugated polyclonal antibody (Ab) against either human IgG or IgM. The plates were washed three times with PBS after blocking, serum and conjugate incubations. After color development with paranitrophenyl phosphate as substrate, optical density at 405 nm was measured. OD values of pooled normal serum control were subtracted from those of patient serum samples measured with the same PE concentration.
In order to determine the optimal concentration of antigen in aPE ELISA, wells were coated with a series of concentrations of egg yolk PE ranging from 1 to 400 μg/ml aPEs or normal control serum were assessed with alkaline phosphatase conjugated polyclonal Ab to either IgG or IgM. […]

[1] = test system: cofactor-independent aPE IgM; experiment: ELISA of synthetic PE compositions, cofactor-independent aPE IgM; conditions: FIG. 9
Experimental: FIGS. 12A-B. Determination of PE coating amount and its impact on ELISA. A, B. determination of PE coating Amount. The indicated amount of PE was coated on 96 well plate and Elisa was performed. The relative OD405 value was deducted the normal serum value. The error bar represents SEM, n=3. A for egg PE, B for 20% 18:0 PE, 13.3% 18:1 PE, 39.9% 20:4 PE, and 26.6% 22:6 PE.
FIG. 13. A head-to-head comparison on the ELISA performance between egg PE and the synthetic formulation. The ELISA place was coated with 0.5 μg of egg PE or the kit formulation (20% 18:0 PE, 13.3% 18:1 PE, 39.9% 20:4 PE, and 26.6% 22:6 PE). OD405 was measured after ELISA and the relative OD value was subtracted from the normal human serum value. The net value was the mean of triplicates. A total 11 patient serum samples were tested for experiments.
Egg PE is currently the most widely used source of PE in ELISA tests for aPE.

[2] = test system: cofactor-dependent IgG aPE; experiment: ELISA with affinity-purified total IgG, cofactor-dependent samples
Experimental: (§1) FIG. 18. aPE reactivity to egg PE, 20:4 PE and 18:1 PE using affinity-purified total IgG from a cofactor-dependent and a cofactor-independent IgG aPE patient plasma. For each ELISA test, the total IgG was used at a concentration of 200 μg/ml. […] The values are means of triplicates.
The values are means of triplicates.
(§2) To minimize uncertainties caused by potential confounding factors in the serum and variations in immunoglobulin contents, the total IgG was isolated from representative aPE patient serum samples and was used to validate ELISA assays.
(§3) Microplates were coated using Egg PE, 20:4 PE or 18:1 PE for IgG aPE ELISA for normal human serum, a representative cofactor-dependent and cofactor-independent patient serum.

[3] = test system: cofactor-independent aPE IgG; experiment: ELISA of synthetic PE compositions, cofactor-independent aPE IgG
Experimental: FIG. 15. Head-to-head comparison between egg PE and synthetic 20:4 PE on the ELISA for cofactor-independent aPE IgG reactivity. The 96 well plate was coated with 1 mg of indicated PE per well, OD405 was measured after ELISA and the relative OD value was determined by subtracting the OD value of normal human serum from the patient sample. […] A total 14 patient serums were tested.

[4] = test system: cofactor-independent IgG aPE; experiment: ELISA with affinity-purified total IgG, cofactor-independent sample; conditions: FIG. 18, total IgG 200 μg/ml
Experimental: as §1, §2, §3

| Compound | antigen concentration at which aPE reactivities peaked (cofactor-independent aPE) | ELISA performance compared with egg PE ([1]; 0.5 mg PE per well, relative OD405 normalized with egg PE, serum from patient J083006H, n=3) | ELISA performance compared with other single PE species ([1]; unsaturated versus saturated, longer versus shorter fatty acid tails) | aPE reactivity of purified total IgG ([2]; FIG. 18, cofactor-dependent sample, total IgG 200 μg/ml) | aPE reactivity of purified total IgG ([2]; FIG. 19, two other cofactor-dependent aPE samples) | OD value relative to egg PE ([3]; FIG. 14, representative patient serum sample, 1 mg PE per well) [folds] | relative ELISA performance against egg PE ([3]; FIG. 14, representative patient serum sample, 1 mg PE per well, n=3) | head-to-head ELISA performance versus egg PE ([3]; FIG. 15, 14 patient serum samples, P=0.012) | improvement of aPE reactivity versus egg PE ([3]; FIG. 15, some samples) [%] | aPE reactivity of purified total IgG [4] |
| --- | --- | --- | --- | --- | --- | --- | --- | --- | --- | --- |
| CCCCCCCC/C=C\CCCCCCCC(=O)OC[C@H](COP(=O)(O)OCCN)OC(=O)CCCCCCC/C=C\CCCCCCCC [DOPE, dioleoyl PE] | around 5 μg/ml |  |  |  |  |  |  |  |  |  |
| CCCCC/C=C\C/C=C\C/C=C\C/C=C\CCCC(=O)OC[C@H](COP(=O)(O)OCCN)OC(=O)CCC/C=C\C/C=C\C/C=C\C/C=C\CCCCC [20:4 PE, arachidonic PE] |  | out-perform egg PE | better performance | not | not | ~14 | highest OD value | out-performed egg PE significantly | ≥ 500 | significant reactivity; also recorded: prefer |
